According to US20200199174A1, “NOVEL FLUORESCENT LABELING METHOD” (priority 2017, published 2020):

Experiments:
[1] = literature (Zheng et al. 2014); cited from earlier work
[2] = tested on: 5D4 fusion protein with TagRFP in HEK293T cells; assay: Expression test of anti-DNP scFv in cultured cells, fluorescent labeling of cytoplasm; assay type: cell-based; conditions: 1 μM, 10 minutes room temperature, washed with HBS, HEK293T cells expressing TagRFP-5D4
Method: HEK293T cells and HeLa cells were cultured in Dulbecco's Modified Eagle's Medium (DMEM, Wako) including 10% fetal bovine serum (FBS, SIGMA) at a carbon dioxide concentration of 5% and a temperature of 37° C.
Gene transfer into HeLa cells was performed using lipofection. For the HeLa cells under culture in a 24-well dish, 25 μL of Opti-MEM I (GIBCO) to which 0.5 μg of a plasmid had been added was added to a mixed solution of 2 μL of Lipofectamine 2000 (Invitrogen) and 25 μL of Opti-MEM I and incubated for five minutes at room temperature. This mixture was added to 500 μL of a medium 90-100% confluent with HEK293T cells and HeLa cells, and culturing was performed at 37° C. at a carbon dioxide concentration of 5%. Cell concentration was diluted to 1/10 5 to 8 hours after transfection, and cells were re-seeded on a glass dish. Cells were subjected to various imaging experiments after 24 hours had passed since transfection.
The 5D4 clone for which a fluorescence-increasing effect of the scFv on the fluorophore-DNP pair was observed was expressed in HEK293T cells as a fusion protein with the fluorescent protein TagRFP, and the state of expression of the scFv in the cells or the propriety of fluorescent labeling of cytoplasm by the fluorophore-DNP pair was evaluated. […]

MBP-5D4 = assay: Dissociation rate constant of anti-DNP scFv and probe (stopped-flow, competition with DNP); assay type: binding, mouse; conditions: 6DCF-DNP and 5D4
Method: (§1) A flow channel in a stopped-flow apparatus (Bio-logic) was filled with a pretreatment liquid in which 1% w/v gelatin was dissolved in a phosphate buffer solution (pH 7.4) (PBS), and blocking was performed by leaving the apparatus at room temperature for at least 30 minutes, after which the flow channel was thoroughly washed with Milli-Q water. Using the apparatus, PBS in which MBP-5D4 or a variant thereof at a concentration of 100 nM or less and a probe at a concentration of 1 μM were dissolved, and PBS in which 100 μM DNP as a competitive substance was dissolved were mixed at a 1:1 ratio, and a fluorescence change was measured. At this time, the excitation/fluorescence wavelengths used were 510 nm/529-556 nm for the DCF probe and 650 nm/672-712 nm for the SiR probe, and measurement was performed under conditions of a temperature of 25-27C. A dissociation rate constant koff was calculated by fitting the fluorescence intensity I(t) observed with respect to time t using formula (1) below (FIG. 13 and Table 1).
I(t)=c1·e^−k^off^t+c2·t+c3 Formula (1):
In the formula cn (n=1-3) is a constant.

5D4 (Y96F) = assay: Dissociation rate constant of anti-DNP scFv mutant and probe (stopped-flow, competition with DNP); assay type: binding, mouse
Description: (§2) An amino acid mutation was introduced into an MBP-scFv protein coding region by circular PCR with pMalc5E-5D4 as a template, using a thermostable polymerase KOD Plus (TOYOBO) and forward and reverse primers including a codon modified to correspond to the desired amino acid mutation. The resultant linear PCR product was circularized using a Ligation Kit Version 2 (TAKARA), and an MBP-scFv mutant expression construct was obtained.
as §1, with “A dissociation rate constant koff was calculated by fitting the fluorescence intensity I(t) observed with respect to time t using formula (1) below (FIG. 13 and Table 1).” left out

V94A mutant = assay: Dissociation rate of alanine-scanning mutant and probe (competition experiments with DNP); assay type: binding, mouse
Description: as §2
as §1, with “A dissociation rate constant koff was calculated by fitting the fluorescence intensity I(t) observed with respect to time t using formula (1) below (FIG. 13 and Table 1).” left out

5D4 = assay: Fluorescence change characteristics of fluorophore-DNP pair in presence and absence of 5D4; assay type: biochemical, mouse; conditions: recombinant 5D4 expressed/purified in E. coli
Method: The anti-DNP scFv was expressed and purified as a fusion protein of maltose-binding protein. Escherichia coli BL21 (DE3) was transformed with the pMalc5E vector (pMalc5E-scFv) into which the purification object scFv sequence was introduced, and was cultured overnight on an LB medium plate including 100 μg/mL of ampicillin. A single colony was picked up and cultured overnight in 5 mL of a liquid LB medium including 100 μg/mL of ampicillin, and 1 mL of the resultant culture liquid was transferred to 100 mL of LB medium including 100 μg/mL of ampicillin. Shake culturing was performed at 200 rpm and a temperature of 37° C. until an optical density at 600 nm of 0.8 was reached, and after shake culturing was performed for 30 minutes at 15° C., IPTG was added to give a final concentration of 0.5 mM, and shake culturing was continued overnight. The E. coli were recovered after culturing and were disrupted using a sonicator. […] An eluate was replaced with PBS, and yield was quantified by the Bradford method, after which the eluate was subjected to the measurements described below.
RNA was extracted from the hybridomas of the resultant four clones, and cDNA fragments of the variable regions of the light chains and heavy chains of monoclonal antibodies were obtained by reverse transcription. The cDNA fragments of the variable regions of the light chains and heavy chains were connected via a linker sequence by overlap PCR, and scFv constructs were constructed only from subclones (4E10 and 5D4) derived from wells 1E10 and 3B12, respectively. […] The nucleic acid sequence of the cDNA sequence coding for 5D4 was identified by sequencing (SEQ ID NO: 8), an amino acid sequence determined from the result thereof was analyzed using the IMGT database (http://www.imgt.org/), and a […] region was specified (FIG. 4).
This fluorescence characteristic is similar to that of Cy5 dye, which is widely used in fluorescence imaging in cells. In the presence of 5D4, the fluorescence intensity of 6SiR-DNP was increased by a factor of 98 relative to the fluorescence intensity thereof in the absence of 5D4 (FIG. 6B). When fluorescence quantum yield of 6SiR-DNP in a state in which 6SiR-DNP is bound to 5D4 was measured, the fluorescence quantum yield in the presence of an excess of 5D4 was 0.57. This value for the fluorescence quantum yield is large, and is equal to or greater than that of Cy5 (quantum yield=0.2-0.4) and Cy5.5 (quantum yield=0.24), which are also highly versatile fluorescent dyes in cell labeling experiments (Q. Zheng et al., Ultra-stable organic fluorophores for single-molecule research. Chem Soc Rev 43, 1044-1056 (2014).).

CCN1/C(=C/C=C/C=C/C2=[N+](CCCCCC(=O)O)c3ccc(S(=O)(=O)O)cc3C2(C)C)C(C)(C)c2cc(S(=O)(=O)[O-])ccc21 [Cy5]
quantum yield [1]: 0.2-0.4

CC(=O)Oc1cc2c(cc1F)C1(OC(=O)c3ccc(C(=O)NCCOCCOCCNc4ccc([N+](=O)[O-])cc4[N+](=O)[O-])cc31)c1cc(F)c(OC(C)=O)cc1O2 [Probe 6OGdiac-DNP, 6-((2-(2-(2-((2,4-dinitrophenyl)amino)ethoxy)ethoxy)ethyl)carbamoyl)-2′,7′-difluoro-3-oxo-3H-spiro[isobenzofuran-1,9′-xanthene]-3′,6′-diyl diacetate]
green fluorescence in cells [2]: confirmed only in the cytoplasm of TagRFP-positive HEK293T cells

Cy5.5
quantum yield [1]: 0.24

O=C(NCCOCCOCCNc1ccc([N+](=O)[O-])cc1[N+](=O)[O-])c1ccc(C(=O)O)c(-c2c3cc(Cl)c(=O)cc-3oc3cc(O)c(Cl)cc23)c1 [Probe 6DCF-DNP, 2-(2,7-dichloro-6-hydroxy-3-oxo-3H-xanthene-9-yl)-4-((2-(2-(2-((2,4-dinitrophenyl)amino)ethoxy)ethoxy)ethyl)carbamoyl)benzoate]
dissociation rate constant (koff) for a fluorescence-OFF state (MBP-5D4): 0.014 s⁻¹
dissociation rate (5D4 (Y96F); Y96F mutant): 1.1 s⁻¹
dissociation rate made faster relative to original (5D4 (Y96F); Y96F mutant and 6DCF-DNP vs original 5D4): 100 times
dissociation rate (V94A mutant; V94A mutant and 6DCF-DNP): 0.31 s⁻¹
rate increase relative to the original rate (V94A mutant; V94A mutant and 6DCF-DNP vs original 5D4): 25 times

CN(CC(=O)NCCOCCOCCNc1ccc([N+](=O)[O-])cc1[N+](=O)[O-])C(=O)c1ccccc1-c1c2cc(Cl)c(=O)cc-2oc2cc(O)c(Cl)cc12 [DCF-DNP, 2-(2,7-dichloro-6-hydroxy-3-oxo-3H-xanthene-9-yl)-N-(2-((2-(2-(2-((2,4-dinitrophenyl)amino)ethoxy)ethoxy)ethyl)amino)-2-oxoethyl)-N-methylbenzamide]
increase in fluorescence intensity (5D4): about 10 times
